According to PubChem BioAssay (NCI):
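How tested: cells in 96-well plates exposed to compound for 48 hours at five concentrations. At the TGI there is no net growth.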

Columns and labels:
Experiment in all cases: NCI tumour cell line growth inhibition, 48 h
KM12 colon = test system: KM12 colon
LOX IMVI melanoma = test system: LOX IMVI melanoma
PC-3 prostate = test system: PC-3 prostate
SK-OV-3 ovarian = test system: SK-OV-3 ovarian
RPMI-8226 leukemia = test system: RPMI-8226 leukemia
SN12C renal = test system: SN12C renal
SR leukemia = test system: SR leukemia
UO-31 renal = test system: UO-31 renal
CAKI-1 renal = test system: CAKI-1 renal
SK-MEL-2 melanoma = test system: SK-MEL-2 melanoma
HOP-62 NSCLC = test system: HOP-62 NSCLC

Structure (SMILES)	TGI (KM12 colon)	TGI (LOX IMVI melanoma)	TGI (PC-3 prostate)	TGI (SK-OV-3 ovarian)	TGI (RPMI-8226 leukemia)	TGI (SN12C renal)	TGI (SR leukemia)	TGI (UO-31 renal)	TGI (CAKI-1 renal)	TGI (SK-MEL-2 melanoma)	TGI (HOP-62 NSCLC)
c1ccc(COC[C@H]2C3OCC([C@H](OCc4ccccc4)[C@H]3OCc3ccccc3)N2Cc2ccccc2)cc1 (stereo not given in full)	> 100 µM	> 100 µM	> 100 µM	> 100 µM	> 100 µM	> 100 µM	> 100 µM	> 100 µM	> 100 µM	> 100 µM	> 100 µM
COC1C(=O)N(SC)C1c1ccccc1Cl (stereo not given)	> 100 µM	> 100 µM	> 100 µM	> 100 µM	44.5 µM	47.3 µM	42.4 µM	33.3 µM	> 100 µM	> 100 µM	> 100 µM
CCOc1nc2sc3c(c2c(=O)n1CCSSCCn1c(OCC)nc2sc4c(c2c1=O)CCCC4)CCCC3	> 100 µM	> 100 µM	> 100 µM	> 100 µM	> 100 µM	> 100 µM	> 100 µM	> 100 µM	> 100 µM	> 100 µM	> 100 µM
CC1(C)CCC[C@@]2(C)C1CC[C@@]1(CO1)[C@@H]2/C=C\C(C=O)CC=O (stereo not given in full)	> 100 µM	> 100 µM	> 100 µM	> 100 µM	> 28.1 µM	> 100 µM	99.2 µM	> 100 µM	> 100 µM	> 100 µM	> 100 µM
COc1cc(-c2ccccc2)cn2c1nc1ccccc12	36.1 µM	52.4 µM	50.8 µM	59.7 µM	62 µM	46.2 µM	99.6 µM	32.4 µM	52.3 µM	44 µM	43.6 µM
